Measurements taken from US20230233425A1, “USE OF VOLATILE COMPOSITIONS TO LIMIT OR ELIMINATE THE PERCEPTION OF MALODOR” (Firmenich SA, priority 2017, published 2023).
pIC50: −log10 of the molar value. Counter-ions that a name gives are not always drawn. Like-named read-outs stand apart in the source and are kept apart here.

Legend:
[1] = molecular target: T1, OR51E1 olfactory receptor (Homo sapiens, UniProt Q8TCB6); test: Butyric acid olfactory receptor antagonist cell-based dose-response vs butyric acid EC80; settings: for Emax: read-out: Inhibition (%)
T1 construct: expressed in transfected cells
T1 sequence (Q8TCB6 1-318): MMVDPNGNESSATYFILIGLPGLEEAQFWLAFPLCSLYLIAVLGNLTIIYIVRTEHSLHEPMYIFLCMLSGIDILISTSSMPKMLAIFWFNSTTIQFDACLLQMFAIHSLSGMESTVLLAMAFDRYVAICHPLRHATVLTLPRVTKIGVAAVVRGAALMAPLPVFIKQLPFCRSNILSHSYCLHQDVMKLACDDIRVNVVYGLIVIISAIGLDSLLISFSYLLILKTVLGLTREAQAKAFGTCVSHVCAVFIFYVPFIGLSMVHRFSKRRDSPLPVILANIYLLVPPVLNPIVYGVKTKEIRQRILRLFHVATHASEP

[2] = system: geonol receptors Olfr339, Olfr1487, Olfr1A1, OR11A1, Olfr96; test: Antagonists of geonol receptors (Example 11); format: cell-based, mouse and human; design: Inhibition(%): concentration or dose not given beside the values; settings: Table 18

Molecule | pIC50 ([1]; Table 20, spiro analogues) | Emax ([1]; Table 20, spiro analogues) | further results
CC(=O)OC(C)C1CC(C)C23CCC(CC12)C3 (stereo not shown) |  |  | pIC50 ([1]; Table 21): 4.01; Inhibition(%) ([1]; Table 21): 23%
CC(=O)OC(C)C1(C)CC(C)C23CCC(CC12)C3 (stereo not shown) |  |  | pIC50 ([1]; Table 21): 4.26; Inhibition(%) ([1]; Table 21): 34%
CC(=O)C1(C)CC(C)C23CCC(CC12)C3 (stereo not shown) |  |  | pIC50 ([1]; Table 21): 4.22; Inhibition(%) ([1]; Table 21): 26%
CC(=O)[C@@]1(C)C(C)[C@H](C)[C@@]23CC[C@H](CC12)C3 (stereo partly shown) |  |  | Inhibition(%) ([1]; Table 21): 27%
CC1C(C)C23CCC(CC2C1(C)C=O)C3 (stereo not shown) |  |  | pIC50 ([1]; Table 21): 3.57; Inhibition(%) ([1]; Table 21): 28%
CC1=CCC(C=CC(C)C(C)O)C1(C)C (stereo not shown) |  |  | pIC50 [2]: 4.12; Inhibition(%) [2]: 33%
CC1=CCC2C(C1)C1CC2C2(C1)OC2C (stereo not shown) |  |  | pIC50 [2]: 3.55; Inhibition(%) [2]: 45%
CC1(CO)CC1CC1CC2CC2(C)C1(C)C (stereo not shown) |  |  | pIC50 [2]: 4.67; Inhibition(%) [2]: 34%
CC(=O)OCC1(C)C(C)C(C)C23CCC(CC12)C3 (stereo not shown) |  |  | pIC50 ([1]; Table 21): 4.22; Inhibition(%) ([1]; Table 21): 27%
CCC1=CCCC(C)(C)[C@@]12C=C[C@@H](C)O2 |  |  | pIC50 [2]: 3.90; Inhibition(%) [2]: 47%
C[C@H]1CCC[C@]2(CCCC[C@@H]2C)[C@@H]1O | 4.11 | 54% | 
CC1CCC2(O1)C(C)(C)CCCC2(C)O (stereo not shown) |  |  | pIC50 [2]: 3.76; Inhibition(%) [2]: 40%
CC(=O)/C(C)=C/C1C(C)=CCCC1(C)C (stereo not shown) |  |  | pIC50 [2]: 2.95; Inhibition(%) [2]: 58%
CC(=O)OC1CC2CCC1(C)C2(C)C (stereo not shown) |  |  | pIC50 [2]: 3.18; Inhibition(%) [2]: 84%
CC(=NO)C1(C)C(C)C(C)[C@]23CC[C@H](CC12)C3 (stereo partly shown) |  |  | Inhibition(%) ([1]; Table 21): 81%
CC(=NO)C1C(C)C(C)C23CCC(CC12)C3 (stereo not shown) |  |  | pIC50 ([1]; Table 21): 4.12; Emax ([1]; Table 21): 19%
CC1CC(C)(C=NO)C2C[C@H]3CC[C@]12C3 (stereo partly shown) |  |  | Inhibition(%) ([1]; Table 21): 38%
2,4,8-trimethylspiro[5.5]undec-3-en-11-ol; 2,9,11-trimethylspiro[5.5]undec-9-en-5-ol | 3.93 |  | Inhibition(%) ([1]; Table 20, spiro analogues): 70%
3,10,10-trimethylspiro[5.5]undec-3-en-11-ol; 4,10,10-trimethylspiro[5.5]undec-3-en-11-ol | < 3.22 |  | Inhibition(%) ([1]; Table 20, spiro analogues): 121%
4,10,10,11-tetramethylspiro[5.5]undec-2-en-11-ol; 5,10,10,11-tetramethylspiro[5.5]undec-3-en-11-ol | 4.33 |  | Inhibition(%) ([1]; Table 20, spiro analogues): 94%
CC(=O)OC(C1CCCCC1C)C(C)(C)C (racemic) [(1RS)-2,2-dimethyl-1-[(1SR,2SR)-2-methylcyclohexyl]propyl acetate] |  |  | Inhibition(%) ([1]; Table 20, spiro analogues): 86%

Molecule | pIC50 ([1]; Table 20, spiro analogues) | Emax ([1]; Table 20, spiro analogues) | further results
C=C1C(C)(C)CCCC12CC1(C)OC1(C)C2 (stereo not shown) [1,1′,1′,5-tetramethyl-2′-methylidenespiro[6-oxabicyclo[3.1.0]hexane-3,3′-cyclohexane]] | 4.12 | 37% | 
CC=CC(=O)C1=C(C)C=CCC1(C)C [1-(2,6,6-trimethylcyclohexa-1,3-dien-1-yl)but-2-en-1-one] |  |  | pIC50 [2]: 3.89; Inhibition(%) [2]: 35%
CC1C=CCC(C)C1C(O)C(C)(C)C (stereo not shown) [1-(2,6-dimethylcyclohex-3-en-1-yl)-2,2-dimethylpropan-1-ol] | 3.49 | 31% | 
C=CCC1(OC)C(C)CCCC1C (stereo not shown) [1-methoxy-2,6-dimethyl-1-prop-2-enylcyclohexane] | 4.00 | 61% | 
C=C1C2CCC(C2)C1(C)C (stereo not shown) [2,2-dimethyl-3-methylidenebicyclo[2.2.1]heptane] |  |  | pIC50 [2]: 3.66; Inhibition(%) [2]: 36%
C=C(C)CC1(CC(=C)C)CCC(C)(C)C1O (stereo not shown) [2,2-dimethyl-5,5-bis(2-methylprop-2-enyl)cyclopentan-1-ol] | 4.45 | 119% | 
C=C(C)CC1(CC(=C)C)CCC(C)(C)C1=O [2,2-dimethyl-5,5-bis(2-methylprop-2-enyl)cyclopentan-1-one] | 4.29 | 82% | 
C=C(C)CC1(CC(=C)C)CCCC(C)(C)C1O (stereo not shown) [2,2-dimethyl-6,6-bis(2-methylprop-2-enyl)cyclohexan-1-ol] | 3.90 | 110% | 
CC1=C(C)CC2(CCC(C)(C)C2=O)C1 [2,3,8,8-tetramethylspiro[4.4]non-2-en-9-one] | 3.70 | 10% | 
CC1CC2(CCCC(C)(C)C2O)CC1C (stereo not shown) [2,3,9,9-tetramethylspiro[4.5]decan-10-ol] | 3.92 | 12% | 
CC1=CC(C)C2(CCCC(C)(C)C2O)C1 (stereo not shown) [2,4,9,9-tetramethylspiro[4.5]dec-2-en-10-ol] | 4.09 | 22% | 
CC1=CC(C)C2(CCCC(C)(C)C2=O)C1 (stereo not shown) [2,4,9,9-tetramethylspiro[4.5]dec-2-en-10-one] | 3.96 | 63% | 
CCCOC(C)OCCc1ccccc1 (stereo not shown) [2-(1-propoxyethoxy)ethylbenzene] |  |  | pIC50 [2]: 3.72; Inhibition(%) [2]: 61%
CC(C)CCOCCc1ccccc1 [2-(3-methylbutoxy)ethylbenzene] |  |  | pIC50 [2]: 3.90; Inhibition(%) [2]: 22%
C=CCC1(C(C)C=C)CCCC(C)(C)C1=O (stereo not shown) [2-but-3-en-2-yl-6,6-dimethyl-2-prop-2-enylcyclohexan-1-one] | 4.12 | 115% | 
CCC(=CCC1CC=C(C)C1(C)C)CO (stereo not shown) [2-ethyl-4-(2,2,3-trimethylcyclopent-3-en-1-yl)but-2-en-1-ol] |  |  | pIC50 [2]: 3.76; Inhibition(%) [2]: 35%
CCC(=CCC1CC=C(C)C1(C)C)CO (stereo not shown) [2-ethyl-4-[1~{S})-2,2,3-trimethylcyclopent-3-en-1-yl]but-2-e] |  |  | pIC50 [2]: 4.35; Inhibition(%) [2]: 19%
CC(C)COC(=O)Cc1ccccc1 [2-methylpropyl 2-phenylacetate] |  |  | pIC50 [2]: 3.85; Inhibition(%) [2]: 45%
CC1C2CC(CC2C2CCCC(O)C2)C1(C)C (stereo not shown) [3-(5,5,6-trimethyl-2-bicyclo[2.2.1]heptanyl)cyclohexan-1-ol] |  |  | pIC50 [2]: 4.00; Inhibition(%) [2]: 29%
CC1=CCC2(CCCCC2O)C(C(C)C)C1 (stereo not shown) [3-methyl-5-propan-2-ylspiro[5.5]undec-2-en-11-ol] | 3.44 | 144% | 
CC1C=CCC12CCCC(C)(C)C2=O (stereo not shown) [4,9,9-trimethylspiro[4.5]dec-2-en-10-one] | 3.57 | 102% | 

Molecule | pIC50 ([1]; Table 20, spiro analogues) | Emax ([1]; Table 20, spiro analogues) | further results
COC1C(C)(C)CCC12CCCC2 (stereo not shown) [4-methoxy-3,3-dimethylspiro[4.4]nonane] | 3.47 | 105% | 
CC1(C)CCCC2(CC=CC2)C1O (stereo not shown) [9,9-dimethylspiro[4.5]dec-2-en-10-ol] | 4.36 | 91% | 
CC1(C)CCCC2(CC=CC2)C1=O [9,9-dimethylspiro[4.5]dec-2-en-10-one] | 3.87 | 23% | 
COC1C(C)(C)CCC12CC=CC2 (stereo not shown) [9-methoxy-8,8-dimethylspiro[4.4]non-2-ene] | 3.62 | 100% | 
COC1C(C)(C)CCCC12CC=CC2 (stereo not shown) [10-methoxy-9,9-dimethylspiro[4.5]dec-2-ene] | 3.92 | 33% | 
CC1CCCCC12CCCCC2O (stereo not shown) [11-methylspiro[5.5]undecan-5-ol] | 4.16 | 52% | 
CC(=O)OC1C(C)(C)CCCC12CC(C)(C)C(C)(C)C2 (stereo not shown) [(2,2,3,3,9,9-hexamethylspiro[4.5]decan-10-yl) acetate] | 3.37 | 39% | 
CC1=C(C)CC2(CCCC(C)(C)C2OC=O)C1 (stereo not shown) [(2,3,9,9-tetramethylspiro[4.5]dec-2-en-10-yl) formate] | 4.59 | 69% | 
CC(=O)OC1C(C)(C)CCCC12CC(C)=CC2C (stereo not shown) [(2,4,9,9-tetramethylspiro[4.5]dec-2-en-10-yl) acetate] | 4.46 | 131% | 
C/C=C/C(=O)C1=C(C)CCCC1(C)C [(2E)-1-(2,6,6-trimethyl-1-cyclohexen-1-yl)-2-buten-1-one] |  |  | pIC50 ([1]; butyric acid at EC80, Table 5): 3.73
CC(=O)OC1C(C)(C)CCCC12CC=C(C)CC2C (stereo not shown) [(3,5,10,10-tetramethylspiro[5.5]undec-2-en-11-yl) acetate] | 4.15 | 104% | 
CC(=O)OC1C(C)(C)CCCC12CC=CC2C (stereo not shown) [(4,9,9-trimethylspiro[4.5]dec-2-en-10-yl) acetate] | 4.31 | 106% | 
CC1CC=CCC12CCCC(C)(C)C2OC=O (stereo not shown) [(5,10,10-trimethylspiro[5.5]undec-2-en-11-yl) formate] | 4.35 | 129% | 
CC(=O)OC1C(C)(C)CCC12CC=CC2 (stereo not shown) [(8,8-dimethylspiro[4.4]non-2-en-9-yl) acetate] | 3.31 | 107% | 
CC(=O)OC1C(C)(C)CCCC12CC=CC2 (stereo not shown) [(9,9-dimethylspiro[4.5]dec-2-en-10-yl) acetate] | 4.04 | 32% | 
CCOCOC1CCCCCCCCCCC1 [(ethoxymethoxy)cyclododecane] |  |  | pIC50 ([1]; butyric acid at EC80, Table 5): 4.16
C[C@@H]1CCCCCCCCCCCCC(=O)C1 [(−)-(3R)-3-methyl-1-cyclopentadecanone] |  |  | pIC50 ([1]; butyric acid at EC80, Table 5): 4.56
COC1CCCCCCCCCCC1 [Methoxycyclododecane] |  |  | pIC50 ([1]; butyric acid at EC80, Table 5): 4.08
CC(=O)OC(C1C(C)C=C(C)CC1C)C(C)(C)C (stereo not shown) [[2,2-dimethyl-1-(2,4,6-trimethylcyclohex-3-en-1-yl)propyl] acetate] | 4.28 | 89% | 
CC(=O)OC(C1C(C)CC(C)CC1C)C(C)(C)C (stereo not shown) [[2,2-dimethyl-1-(2,4,6-trimethylcyclohexyl)propyl] acetate] | 3.62 | 101% | 
methyl 1-(3-methylbut-2-enyl)cyclohex-2-ene-1-carboxylate, methyl 1-(3-methylbut-2-enyl)cyclohex-3-ene-1-carboxylate, or mixtures thereof | 3.24 |  | Inhibition(%) ([1]; Table 20, spiro analogues): 38%
